SMILES strings stand for the structures. Counter-ions that a name gives are not always drawn.

In general, IC50 refers to the point on the concentration scale where inhibition reaches its midpoint.

human GLUT9, sequence (Q9NRM0 other isoform, or with tags, fused parts or gaps): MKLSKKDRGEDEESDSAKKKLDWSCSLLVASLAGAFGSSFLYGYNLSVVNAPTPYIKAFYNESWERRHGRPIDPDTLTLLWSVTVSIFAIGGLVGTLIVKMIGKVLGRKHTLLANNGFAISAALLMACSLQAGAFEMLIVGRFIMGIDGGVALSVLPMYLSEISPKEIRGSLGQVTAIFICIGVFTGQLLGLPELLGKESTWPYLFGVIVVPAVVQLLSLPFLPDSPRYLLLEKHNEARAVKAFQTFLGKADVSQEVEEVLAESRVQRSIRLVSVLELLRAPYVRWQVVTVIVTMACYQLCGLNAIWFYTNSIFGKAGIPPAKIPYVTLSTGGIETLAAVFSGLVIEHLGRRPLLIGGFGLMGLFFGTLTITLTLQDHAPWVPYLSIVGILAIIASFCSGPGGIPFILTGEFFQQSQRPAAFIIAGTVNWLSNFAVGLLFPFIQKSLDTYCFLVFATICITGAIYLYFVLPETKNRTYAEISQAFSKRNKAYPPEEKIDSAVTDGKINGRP

The first test deals with human GLUT9 (Homo sapiens (Human), UniProt Q9NRM0). Briefly: Evaluation of human GLUT9 inhibitory activity ([14C] uric acid uptake in human GLUT9 expressing HEK293T cells transduced with Uricase/Hyper). It counts as cell-based. The conditions noted are these: HEK-293T, 10 μM compound, human GLUT9 stably expressing HEK293T cells, read-out: GLUT9 inhibitory rate at 10 μM of compound. On the procedure:
A method for measuring GLUT9 inhibitory activity using human GLUT9 expressing cells transduced with Uricase/Hyper is shown hereinafter. GLUT9 inhibitory activity ([…]) of the test compound was calculated based on the intracellular uptake amount of labeled uric acid ([^14C] uric acid) transported by GLUT9.
1. Preparation of Human GLUT9 Expression Plasmid
Human GLUT9S coding region (NM_001001290.1) was amplified by PCR method using PrimeSTAR MAX DNA Polymerase (Takara Bio). The obtained PCR product was subjected to agarose gel electrophoresis, and the desired size of PCR product was purified by QIAquick Gel Extraction Kit (QIAGEN). Next, pEBMulti-Bsd vector (Wako Pure Chemical Industries, Ltd.) was subjected to digestion using restriction enzymes SalI and EcoR V, and linked to the PCR product containing GLUT9S by In-Fusion reaction using In-Fusion HD Cloning Kit (Takara Bio). XL10-Gold Competent Cells (Agilent Technologies) were transformed in In-Fusion reaction solution, and the obtained transfectants were cultured with shaking overnight in LB medium to which Blasticidin S HCl (Thermo Fisher Scientific) was added. Human GLUT9 expression plasmid DNA was prepared from the collected transfectants using EndoFree Plasmid Kit (Takara Bio).
2. Establish of Human GLUT9 Stably Expressing Cell
HEK293T cells (American Type Culture Collection, DS Pharma Biomedical) were seeded in a 6 well plate at 1×10^6 cells/well. Next day, human GLUT9 expression plasmid was transfected by using Lipofectamine 3000 Reagent (Thermo Fisher Scientific) as follows. Lipofectamine 3000 Reagent (5 μL) was diluted with Opti-MEM (125 μL, Thermo Fisher Scientific). Separately, plasmid DNA (2.5 μg) was diluted with Opti-MEM (125 μL), and P3000 Reagent (5 μL) was added thereto. The obtained solution was mixed with the previously obtained diluted solution, and the mixture was left stand at room temperature for 5 min, and added to the cells. Next day, the transfected cells were diluted and reseeded in a 6 well plate at 4×10^5 cells/well, and drug selection was performed in the presence of 30 μg/mL of Blasticidin S HCl, and thereby, Blasticidin-resistant human GLUT9 stably expressing cell line was established. Mock cells were prepared by introducing pEBMulti-Bsd vector into HEK293T cells in a similar manner.
3. Preparation of Uricase/Hyper Expression Plasmid
Uricase/Hyper expression plasmid was prepared by linking the coding regions of Aspergillus Flavus-derived uricase gene and pHyPer-Cyto vector (Evrogen) HyPer gene to the pEBMulti-Hyg vector (Wako Pure Chemical Industries, Ltd.) and then introducing it. The preparation method was performed by reference to Gout and Nucleic Acid Metabolism 2013, 37(2), 93-101, and seven repeated linker sequence of glycine-glycine-glycine-serine was prepared herein.
4. Preparation of Human GLUT9-Uricase/Hyper Coexpressing Cell
Human GLUT9 stably expressing cells were seeded at 3.6×10^7 cells per 225 cm^2 flask. Next day, Uricase/Hyper expression plasmid was transfected by using Lipofectamine 3000 Reagent as follows. Lipofectamine 3000 Reagent (40 μL) was diluted with Opti-MEM (750 μL). Separately, plasmid DNA (20 μg) was diluted with Opti-MEM (750 μL), and P3000 Reagent (40 μL) was added thereto. The obtained solution was mixed with the previously obtained diluted solution, and the mixture was left stand at room temperature for 5 min, and added to the cells. Next day, transfected cells were collected to prepare human GLUT9-Uricase/Hyper coexpressing cells.
5. Evaluation of GLUT9 Inhibitory Activity
Uricase/Hyper transiently-transfected human GLUT9 stably expressing cells or mock cells (blank) were seeded in a 96 well plate (Corning) at 1.6×10^5 cells/well, and cultured overnight at 37° C., 5% CO2. D-MEM/high glucose (Wako Pure Chemical Industries, Ltd.) containing 10% Fetal Bovine Serum (Lifetechnology) and 100 units/ml penicillin/100 μg/ml streptomycin (GIBCO) was used as a medium.
Take `CCCCNC(=O)c1cnc(-c2ccc(OC)cc2)c(-c2ccc(C(=O)O)cc2)c1` [Example 76, 4-(5-(butylcarbamoyl)-2-(4-methoxyphenyl)pyridin-3-yl)benzoic Acid Hydrochloride]: the inhibition at 10 µM was 10%.

As for `CCCCc1cnc(-c2ccc(C(=O)O)cc2)c(-c2ccc(C(=O)O)cc2)n1` [Example 7], the inhibition at 10 µM amounted to 9%.

In the case of `COc1ccc(-c2ncc(C3CCOCC3)cc2-c2ccc(C(=O)O)cc2)cc1` [Example 60], the inhibition at 10 µM is 45%.

As for `COc1ccc(-c2ncc(CC3CCCCC3)cc2-c2ccc(C(=O)O)cc2)cc1` [Example 47], the inhibition at 10 µM came to 47%.

The test is the same for the next values; noted with them: final 300 μM uric acid, 6 min, human GLUT9 stably expressing HEK293T cells, read-out: humans GLUT9 inhibitory activity (IC50 value (μM)).
In the case of `COCCCCc1cnc(-c2cc(F)c(OC)c(F)c2)c(-c2ccc(C(=O)O)c(C)c2)c1` [Example 130], the IC50 is 0.0521 µM.

`COCCCc1cnc(-c2cc(F)c(OC)c(F)c2)c(-c2ccc(CCC(=O)O)cc2)n1` [Example 97]: the IC50 worked out at 0.0795 µM.

For the compound `CCCCc1cnc(-c2ccc(Cl)cc2)c(-c2ccc(C(=O)O)cc2)n1` [Example 31], the IC50 amounted to 0.134 µM.

On to `COCCCc1cnc(-c2cc(F)c(OC)c(F)c2)c(-c2ccc(CCC(=O)O)cc2)c1` [Example 95], for which the IC50 was 0.0576 µM.

On to `CCCc1cnc(-c2cc(F)c(OC)c(F)c2)c(-c2ccc(C(=O)O)cc2)n1` [Example 66], for which the IC50 was 0.077 µM.

For `COCCCc1cnc(-c2ccc(OC)c(F)c2)c(-c2ccc(C(=O)O)c(F)c2)n1` [Example 113], the IC50 stood at 1 µM.

Consider `CCCCc1cnc(-c2ccc(OC)cc2)c(-c2ccc(C(=O)O)c(C)c2)c1` [Example 114], for which the IC50 was 0.0604 µM.

Take `CCCCc1cnc(-c2ccc(CCC)cc2)c(-c2ccc(C(=O)O)cc2)n1` [Example 79]: the 50% inhibitory concentration (IC50) amounted to 0.369 µM.

`CCCCc1cnc(-c2cc(F)c(OC)c(Cl)c2)c(-c2ccc(C(=O)O)cc2)n1` [Example 64]: the IC50 was found to be 0.0987 µM.

With `CCCCc1cnc(-c2ccc(C(F)(F)F)c(F)c2)c(-c2ccc(C(=O)O)cc2)n1` [Example 24], the IC50 came out at 0.134 µM.

As to `COCCCc1cnc(-c2cc(F)c(OC)c(F)c2)c(-c2ccc(C(=O)O)c(F)c2)n1` [Example 112], the IC50 was 0.561 µM.

With `CCCc1cnc(-c2ccc(C(F)(F)F)cc2)c(-c2ccc(C(=O)O)cc2)n1` [Example 36], the IC50 was determined as 0.189 µM.

As for `CCOCCc1cnc(-c2cc(F)c(OC)c(F)c2)c(-c2ccc(C(=O)O)cc2)c1` [Example 140], the IC50 is 0.0713 µM.

For the compound `CCCCc1cnc(-c2cc(F)c(OC)c(F)c2)c(-c2ccc(CCC(=O)O)cc2)n1` [Example 153], the IC50 was 0.102 µM.

Take `CCCCc1cnc(-c2ccc(OC)cc2)c(-c2ccc(C(=O)O)c(OC)c2)n1` [Example 6]: the concentration for half-maximal inhibition (IC50) came out at 0.141 µM.

As to `CCCCc1cnc(-c2ccc(OC)cc2)c(-c2ccc(C(=O)O)c(C)c2)n1` [Example 83], the IC50 stood at 0.0662 µM.

With `CCCCc1cnc(-c2cc(Cl)c(OC)c(Cl)c2)c(-c2ccc(C(=O)O)cc2)n1` [Example 65], the IC50 came out at 0.0946 µM.

In the case of `CCOCCc1cnc(-c2cc(F)c(OC)c(F)c2)c(-c2ccc(C(=O)O)c(Cl)c2)c1` [Example 142], the IC50 came to 0.226 µM.

With `COc1ccc(-c2ncc(CCC3CC3)cc2-c2ccc(C(=O)O)cc2)cc1` [Example 52], the IC50 is 0.119 µM.

Regarding `COCCCc1cnc(-c2cc(F)c(OC)c(F)c2)c(-c2ccc(C(=O)O)c(C)c2)n1` [Example 109], the IC50 was found to be 0.0799 µM.

For the compound `CCCCc1cnc(-c2ccc(OC)cc2)c(-c2ccc(C(=O)O)c(F)c2)n1` [Example 14], the IC50 came to 0.0914 µM.

Turning to `COCCc1cnc(-c2ccc(OC)cc2)c(-c2ccc(C(=O)O)cc2)c1` [Example 102], the IC50 amounted to 0.79 µM.

Regarding `COCCCCc1cnc(-c2cc(F)c(OC)c(F)c2)c(-c2ccc(C(=O)O)cc2)c1` [Example 129], the IC50 came out at 0.0569 µM.

With `COc1ccc(-c2ncc(C(C)C)cc2-c2ccc(C(=O)O)cc2)cc1` [Example 57], the IC50 came to 0.344 µM.

On to `COCCCCc1cnc(-c2cc(F)c(OC)c(F)c2)c(-c2ccc(C(=O)O)c(C)c2)n1` [Example 135], for which the IC50 was 0.0613 µM.

Regarding `CCCCc1cnc(-c2ccc(C(C)(C)C)cc2)c(-c2ccc(C(=O)O)cc2)n1` [Example 55], the IC50 came to 3.99 µM.

Regarding `CCCCc1cnc(-c2ccc(OC(F)(F)F)cc2)c(-c2ccc(C(=O)O)cc2)n1` [Example 75], the IC50 amounted to 0.0844 µM.

For `CCCCc1cnc(-c2ccc(OC)c(Cl)c2)c(-c2ccc(C(=O)O)cc2)n1` [Example 16], the IC50 was determined as 0.0819 µM.

Turning to `COCCCc1cnc(-c2ccc(OC)cc2)c(-c2ccc(C(=O)O)cc2)c1` [Example 84, 4-(2-(4-methoxyphenyl)-5-(3-methoxypropyl)pyridin-3-yl)benzoic Acid], the concentration for half-maximal inhibition (IC50) came out at 0.117 µM.

As to `CCCCc1cnc(-c2ccc3c(c2)CCCO3)c(-c2ccc(C(=O)O)cc2)n1` [Example 49], the IC50 amounted to 0.201 µM.

In the case of `CCOCCc1cnc(-c2cc(F)c(OC)c(F)c2)c(-c2ccc(CCC(=O)O)cc2)n1` [Example 134], the IC50 came to 0.525 µM.

Consider `CCOCCc1cnc(-c2ccc(OC)cc2)c(-c2ccc(C(=O)O)c(C)c2)c1` [Example 137], for which the IC50 is 0.0917 µM.

As to `CCCOCc1cnc(-c2ccc(OC)cc2)c(-c2ccc(C(=O)O)c(C)c2)c1` [Example 143], the IC50 is 0.125 µM.

As for `COCc1cnc(-c2ccc(OC)cc2)c(-c2ccc(C(=O)O)cc2)c1` [Example 78], the IC50 was 2.21 µM.

`CCCOCc1cnc(-c2ccc(OC)cc2)c(-c2ccc(C(=O)O)cc2)c1` [Example 118, 4-(2-(4-methoxyphenyl)-5-(propoxymethyl)pyridin-3-yl)benzoic Acid]: the IC50 was determined as 0.108 µM.

As for `COc1c(F)cc(-c2ncc(CC(C)C)nc2-c2ccc(CCC(=O)O)cc2)cc1F` [Example 150], the IC50 stood at 0.102 µM.

With `COc1ccc(-c2ncc(CC(C)C)cc2-c2ccc(C(=O)O)cc2)cc1` [Example 58], the IC50 stood at 0.052 µM.

On to `COCCCc1cnc(-c2ccc(OC)c(F)c2)c(-c2ccc(C(=O)O)cc2)c1` [Example 106], for which the IC50 was found to be 0.101 µM.

With `CCCOCc1cnc(-c2cc(F)c(OC)c(F)c2)c(-c2ccc(CCC(=O)O)cc2)c1` [Example 146], the IC50 was 0.139 µM.

In the case of `CCCc1cnc(-c2ccc(OC)cc2)c(-c2ccc(C(=O)O)cc2)n1` [Example 37], the concentration for half-maximal inhibition (IC50) amounted to 0.111 µM.

For the compound `COc1ccc(-c2ncc(C3CCCC3)cc2-c2ccc(C(=O)O)cc2)cc1` [Example 59], the 50% inhibitory concentration (IC50) was determined as 0.132 µM.

On to `COCCCc1cnc(-c2cc(F)c(OC)c(F)c2)c(-c2ccc(C(=O)O)cc2)c1` [Example 107], for which the IC50 amounted to 0.0627 µM.

As for `COCCCc1cnc(-c2ccc(OC)cc2)c(-c2ccc(C(=O)O)c(C)c2)c1` [Example 116, 4-(2-(4-methoxyphenyl)-5-(3-methoxypropyl)pyridin-3-yl)-2-methylbenzoic Acid], the half-maximal inhibitory concentration (IC50) worked out at 0.0684 µM.

Turning to `COc1ccc(-c2ncc(Cc3ccccc3)cc2-c2ccc(C(=O)O)cc2)cc1` [Example 101], the IC50 amounted to 0.164 µM.

For the compound `COc1c(F)cc(-c2ncc(CC(C)C)nc2-c2ccc(C(=O)O)c(C)c2)cc1F` [Example 149], the IC50 came to 0.0574 µM.

With `CCCCc1cnc(-c2ccc(C3COC3)cc2)c(-c2ccc(C(=O)O)cc2)n1` [Example 89], the IC50 was 1.8 µM.

Consider `COCCCCc1cnc(-c2ccc(OC)cc2)c(-c2ccc(C(=O)O)cc2)n1` [Example 20], for which the IC50 is 0.12 µM.

Take `COc1ccc(-c2ncc(CC3CC3)cc2-c2ccc(C(=O)O)cc2)cc1` [Example 96]: the IC50 came out at 0.0887 µM.

For the origin of these results see patent US10752596B2, “Nitrogen-containing heteroaryl compound and pharmaceutical use thereof” (JAPAN TOBACCO INC., priority 2017, dated 2020).
